Experimental data from patent US9650339B2, “Inhibitors of histone demethylases” (Gilead Sciences, Inc., priority 2013, dated 2017).

Assays:
KDM4A (JMJD2A) = target: T1, KDM4A (JMJD2A) (Homo sapiens, UniProt O75164); assay: Histone lysine demethylase AlphaLISA assay, KDM4A; type: biochemical; settings: read-out: KDM4A HDME Inhibition IC50
T1 construct: 1-350; purchased BPS Bioscience, US; host or cells: E. coli
T1 sequence (O75164 1-350): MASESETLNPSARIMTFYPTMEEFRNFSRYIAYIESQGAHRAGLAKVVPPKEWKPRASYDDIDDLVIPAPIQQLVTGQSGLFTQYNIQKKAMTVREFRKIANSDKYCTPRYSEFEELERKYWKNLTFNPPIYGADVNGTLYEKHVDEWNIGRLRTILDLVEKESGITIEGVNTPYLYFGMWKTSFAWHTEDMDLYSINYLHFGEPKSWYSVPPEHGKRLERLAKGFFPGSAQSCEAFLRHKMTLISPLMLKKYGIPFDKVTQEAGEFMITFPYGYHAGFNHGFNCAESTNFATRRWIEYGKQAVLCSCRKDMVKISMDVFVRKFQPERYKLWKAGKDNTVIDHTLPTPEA
Description: (§1) Assays are performed analogously to the protocol described by PerkinElmer (Roy et al. PerkinElmer Technical Note: AlphaLISA #12, April 2011)
(§2) Enzymes are dissolved in enzyme buffer and incubated for 10 min before being added to 3% DMSO solutions of compounds in enzyme buffer. Incubated for another 10 minutes, before substrate solution is added and the reaction mixture is incubated at room temperature. 10 μL acceptor beads, suspended in Epigenetic Buffer (Perkin Elmer AL008) from stock, are added and the suspension is incubated in the dark at room temperature, before a suspension of streptavidin donor beads (Perkin Elmer 6760002) in Epigenetic Buffer is added. After incubation at room temperature in the dark the plates are read.
BK9M3: Biotin-ARTKQTAR(KMe3)STGGKAPRKQ-NH2 (Caslo, Denmark) […]
(§3) Substrate Solution: Substrate, 25 μM L-Asc, and 10 μM α-KG in Buffer A.

KDM5C (JARID1C) = target: T2, KDM5C (JARID1C) (Homo sapiens, UniProt P41229); assay: Histone lysine demethylase AlphaLISA assay, KDM5C; type: biochemical; settings: read-out: KDM5C HDME Inhibition IC50
T2 construct: 2-1560; purchased BPS; host or cells: Bac (baculovirus system)
T2 sequence (P41229 2-1560): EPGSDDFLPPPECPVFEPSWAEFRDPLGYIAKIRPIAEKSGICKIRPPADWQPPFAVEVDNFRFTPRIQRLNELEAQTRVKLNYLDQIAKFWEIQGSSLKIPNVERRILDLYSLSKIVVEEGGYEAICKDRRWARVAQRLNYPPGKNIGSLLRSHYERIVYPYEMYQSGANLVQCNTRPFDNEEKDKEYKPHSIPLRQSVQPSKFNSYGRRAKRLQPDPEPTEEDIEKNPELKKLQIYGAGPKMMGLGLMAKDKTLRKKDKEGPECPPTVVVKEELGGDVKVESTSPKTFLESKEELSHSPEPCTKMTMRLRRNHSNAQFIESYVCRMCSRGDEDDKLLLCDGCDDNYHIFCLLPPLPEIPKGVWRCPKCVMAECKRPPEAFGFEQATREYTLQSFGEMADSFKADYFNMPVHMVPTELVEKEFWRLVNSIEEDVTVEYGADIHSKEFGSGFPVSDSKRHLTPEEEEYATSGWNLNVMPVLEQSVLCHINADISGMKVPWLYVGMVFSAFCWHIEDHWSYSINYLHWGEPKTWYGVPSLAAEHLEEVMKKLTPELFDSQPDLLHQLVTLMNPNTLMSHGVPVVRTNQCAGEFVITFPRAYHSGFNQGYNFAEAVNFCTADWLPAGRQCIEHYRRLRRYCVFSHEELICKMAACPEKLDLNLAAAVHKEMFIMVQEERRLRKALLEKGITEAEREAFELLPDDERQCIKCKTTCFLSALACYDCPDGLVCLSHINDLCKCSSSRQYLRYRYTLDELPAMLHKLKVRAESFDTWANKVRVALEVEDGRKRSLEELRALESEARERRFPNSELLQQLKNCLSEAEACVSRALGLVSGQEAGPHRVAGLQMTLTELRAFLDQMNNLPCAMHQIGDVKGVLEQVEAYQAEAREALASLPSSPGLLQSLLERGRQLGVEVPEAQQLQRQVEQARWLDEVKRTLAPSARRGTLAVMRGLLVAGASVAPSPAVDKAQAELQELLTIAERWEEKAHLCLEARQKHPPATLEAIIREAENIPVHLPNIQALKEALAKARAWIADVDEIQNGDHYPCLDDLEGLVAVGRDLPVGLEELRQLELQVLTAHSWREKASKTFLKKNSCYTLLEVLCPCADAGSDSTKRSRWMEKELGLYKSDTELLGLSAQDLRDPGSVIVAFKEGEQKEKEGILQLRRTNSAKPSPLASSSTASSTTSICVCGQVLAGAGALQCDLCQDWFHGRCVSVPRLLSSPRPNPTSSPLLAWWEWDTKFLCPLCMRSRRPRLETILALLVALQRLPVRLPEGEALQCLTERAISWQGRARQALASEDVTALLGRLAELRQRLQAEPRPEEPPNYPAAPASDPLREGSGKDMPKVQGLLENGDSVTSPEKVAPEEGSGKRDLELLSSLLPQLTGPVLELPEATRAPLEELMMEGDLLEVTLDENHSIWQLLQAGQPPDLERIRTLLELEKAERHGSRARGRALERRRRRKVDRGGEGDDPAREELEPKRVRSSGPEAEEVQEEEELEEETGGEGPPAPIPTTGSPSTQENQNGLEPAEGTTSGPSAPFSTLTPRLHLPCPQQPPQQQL
Description: as §1
as §2, with “read. […]” for “read.”
H3K4M3B: H-ART(Kme3)QTARKSTGGKAPRKQLA-NH-Biotin (Caslo, Denmark) […]
as §3

KDM6B (JMJD3) = target: T3, KDM6B (JMJD3) (Homo sapiens, UniProt O15054); assay: Histone lysine demethylase AlphaLISA assay, KDM6B; type: biochemical; settings: read-out: KDM6B HDME Inhibition IC50
T3 construct: 1043-end; purchased BPS; host or cells: Bac (baculovirus system)
T3 sequence (O15054 1043-1682 isoform O15054-1 limits assumed): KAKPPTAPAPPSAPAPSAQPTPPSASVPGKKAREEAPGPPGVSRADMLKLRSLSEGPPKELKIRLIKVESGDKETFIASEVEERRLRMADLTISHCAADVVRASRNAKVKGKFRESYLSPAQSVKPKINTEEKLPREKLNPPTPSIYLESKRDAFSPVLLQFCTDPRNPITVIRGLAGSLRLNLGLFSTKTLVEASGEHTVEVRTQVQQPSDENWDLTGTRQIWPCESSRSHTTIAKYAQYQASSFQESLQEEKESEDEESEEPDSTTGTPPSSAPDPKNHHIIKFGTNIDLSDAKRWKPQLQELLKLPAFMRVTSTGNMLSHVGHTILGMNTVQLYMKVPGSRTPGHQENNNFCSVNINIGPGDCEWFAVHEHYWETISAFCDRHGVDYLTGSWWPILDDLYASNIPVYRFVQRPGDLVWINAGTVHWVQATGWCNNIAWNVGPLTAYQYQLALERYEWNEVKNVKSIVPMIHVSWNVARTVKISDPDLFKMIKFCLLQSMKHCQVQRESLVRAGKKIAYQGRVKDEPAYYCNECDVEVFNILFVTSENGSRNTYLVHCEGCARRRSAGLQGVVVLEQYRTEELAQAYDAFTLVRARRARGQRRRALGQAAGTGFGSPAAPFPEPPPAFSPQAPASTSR
Description: as §1
as §2, with “read. […]” for “read.”
BK27M3: Biotin-ATKAAR(Kme3)SAPATGGVKKPHRY-NH2? (Caslo, Denmark) […]
as §3

KDM5B = target: T4, KDM5B (Homo sapiens, UniProt Q9UGL1); assay: Histone lysine demethylase immunofluorescence assay, U2OS cells transfected with KDM5B; type: cell-based; settings: U2OS cells transfected with pCMVHA KDM5B; mark detected H3K4me2; 20 hours
T4 construct: (a.a. 1-752); host or cells: U2OS
T4 sequence (Q9UGL1 1-752): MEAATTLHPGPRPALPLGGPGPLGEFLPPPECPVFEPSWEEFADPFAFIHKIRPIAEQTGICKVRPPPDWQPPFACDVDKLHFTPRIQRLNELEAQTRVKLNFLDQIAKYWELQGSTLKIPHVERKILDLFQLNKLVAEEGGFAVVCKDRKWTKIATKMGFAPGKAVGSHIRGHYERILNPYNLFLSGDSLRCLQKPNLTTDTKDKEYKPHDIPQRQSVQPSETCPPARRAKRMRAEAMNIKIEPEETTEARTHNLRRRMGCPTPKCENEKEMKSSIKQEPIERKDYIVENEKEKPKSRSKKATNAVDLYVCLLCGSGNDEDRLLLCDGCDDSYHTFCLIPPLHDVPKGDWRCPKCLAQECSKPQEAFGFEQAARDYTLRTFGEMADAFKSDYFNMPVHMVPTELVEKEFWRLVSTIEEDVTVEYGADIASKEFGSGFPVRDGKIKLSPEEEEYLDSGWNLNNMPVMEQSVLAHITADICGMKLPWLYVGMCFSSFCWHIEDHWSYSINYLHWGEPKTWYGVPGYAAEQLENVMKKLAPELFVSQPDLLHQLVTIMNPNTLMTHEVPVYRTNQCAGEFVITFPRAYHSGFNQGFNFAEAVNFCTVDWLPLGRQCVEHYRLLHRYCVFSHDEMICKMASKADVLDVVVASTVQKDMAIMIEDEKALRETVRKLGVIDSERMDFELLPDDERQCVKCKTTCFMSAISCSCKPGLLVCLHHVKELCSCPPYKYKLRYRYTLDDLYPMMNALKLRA
Description: U2OS cells were seeded 24 hours before transfection. Transfection was performed with Fugene HD transfection reagent as recommended by the manufacturer. 6 hours after transfection, the cells were harvested and seeded into multi well plates into media containing compound. The media used was DMEM containing 10% FBS and pen/strep. 20 hours after incubation of cells with compounds, the cells were washed in PBS, harvested by fixation with formaldehyde 4% aqueous solution, and washed in PBS. Subsequently, the cells were permeabilized in PBS with 0.2% Triton X-100 for. Blocking was performed in PBS with 0.2% Triton X-100 and 5% FBS. The cells were incubated with primary antibodies in blocking solution over night at 4° C. The primary antibodies used in the assays were HA.11 (Covance, MMS-101P) and the antibody detecting the mark specified in the table below. After incubation with primary antibodies, the cells were washed with PBS, incubated with secondary antibodies (Alexa fluor 594 goat anti rabbit IgG, Invitrogen, A11012; Alexa flour 488 donkey anti mouse IgG, Invitrogen, A21202) and Hoechst, (Sigma, 33342) in blocking solution, and washed again with PBS. Finally, PBS was added and high throughput imaging and analysis were performed by an IN Cell Analyzer 1000 (GE Healthcare). The robot software analyzed individual cells and divided these into HA+ (transfected cells) and HA− (non-transfected cells). The IC50 values were based on an average measure of the staining of the mark specified in the table below in the transfected cells.

Structure (SMILES): CCN(CC)CCCCNCc1cc(CNC(=O)C(F)(F)F)ccn1 [Compound 1, N-{[2-({[4-(diethylamino)butyl]-amino}methyl)pyridin-4-yl]methyl}-2,2,2-trifluoroacetamide]
- IC50 (KDM4A (JMJD2A)): 250 to 2500 nM
- IC50 (KDM5C (JARID1C)): 250 to 2500 nM
- IC50 (KDM6B (JMJD3)): > 2500 nM
- IC50 (KDM5B): < 250 nM

Structure (SMILES): CN(C)CCCNCc1cc(CN)ccn1 [Compound 3, [2-({[3-(dimethylamino)propyl]-amino}methyl)pyridin-4-yl]methanamine]
- IC50 (KDM4A (JMJD2A)): < 250 nM
- IC50 (KDM5C (JARID1C)): < 250 nM
- IC50 (KDM6B (JMJD3)): > 2500 nM
- IC50 (KDM5B): < 250 nM

Structure (SMILES): CCN(CCN(C)C)C(=O)CNCc1cc(CN)ccn1 [Compound 4, 2-({[4-(aminomethyl)pyridin-2-yl]methyl}amino)-N-[2-(dimethylamino)ethyl]-N-ethylacetamide]
- IC50 (KDM4A (JMJD2A)): 250 to 2500 nM
- IC50 (KDM5C (JARID1C)): < 250 nM
- IC50 (KDM6B (JMJD3)): > 2500 nM
- IC50 (KDM5B): < 250 nM

Structure (SMILES): CCN(CC)CCCCN(Cc1cc(CNC(=O)C(F)(F)F)ccn1)C(=O)C(F)(F)F [Compound 6, N-[4-(diethylamino)butyl]-- 2,2,2-trifluoro-N-({4-[(trifluoroacetamido)-methyl]pyridin-2-yl}methyl)acetamide]
- IC50 (KDM4A (JMJD2A)): 250 to 2500 nM
- IC50 (KDM5C (JARID1C)): > 2500 nM
- IC50 (KDM6B (JMJD3)): > 2500 nM
- IC50 (KDM5B): < 250 nM

Structure (SMILES): CN(C)CCCCCNCc1cc(CN)ccn1 [Compound 8, [2-({[5-(dimethylamino)pentyl]-amino}methyl)pyridin-4-yl]methanamine]
- IC50 (KDM4A (JMJD2A)): > 2500 nM
- IC50 (KDM5C (JARID1C)): < 250 nM
- IC50 (KDM6B (JMJD3)): > 2500 nM
- IC50 (KDM5B): < 250 nM

Structure (SMILES): COc1ccccc1CN1CCC(NC(=O)CNCc2cc(CN)ccn2)CC1 [Compound 9, 2-({[4-(aminomethyl)pyridin-2-yl]methyl}amino)-N-{1-[(2-methoxyphenyl)methyl]-piperidin-4-yl}acetamide]
- IC50 (KDM4A (JMJD2A)): > 2500 nM
- IC50 (KDM5C (JARID1C)): < 250 nM
- IC50 (KDM6B (JMJD3)): > 2500 nM
- IC50 (KDM5B): 250 to 2500 nM

Structure (SMILES): CCCNCc1cc(CNC2CC2)ccn1 [Compound 12, N-({2-[(propylamino)methyl]-pyridin-4-yl}methyl)-cyclopropanamine]
- IC50 (KDM4A (JMJD2A)): > 2500 nM
- IC50 (KDM5C (JARID1C)): > 2500 nM
- IC50 (KDM6B (JMJD3)): > 2500 nM
- IC50 (KDM5B): > 2500 nM

Structure (SMILES): CN(C)C(=O)CNCc1cc(CNCC#N)ccn1 [Compound 13, 2-{[(4-{[(cyanomethyl)amino]-methyl}pyridin-2-yl)methyl]amino}-N,N-dimethylacetamide]
- IC50 (KDM4A (JMJD2A)): > 2500 nM
- IC50 (KDM5C (JARID1C)): > 2500 nM
- IC50 (KDM6B (JMJD3)): > 2500 nM
- IC50 (KDM5B): 250 to 2500 nM

Structure (SMILES): CN(C)C(=O)CNCc1cc(CNCCF)ccn1 [Compound 14, 2-{[(4-{[(2-fluoroethyl)amino]-methyl}pyridin-2-yl)methyl]amino}-N,N-dimethylacetamide]
- IC50 (KDM4A (JMJD2A)): > 2500 nM
- IC50 (KDM5C (JARID1C)): 250 to 2500 nM
- IC50 (KDM6B (JMJD3)): > 2500 nM
- IC50 (KDM5B): > 2500 nM

Structure (SMILES): CN(C)CCNCc1ccnc(CNCC(=O)N(C)C)c1 [Compound 15, 2-({[4-({[2-(dimethylamino)ethyl]-amino}methyl)pyridin-2-yl]methyl}amino)-N,N-dimethylacetamide]
- IC50 (KDM4A (JMJD2A)): > 2500 nM
- IC50 (KDM5C (JARID1C)): 250 to 2500 nM
- IC50 (KDM6B (JMJD3)): > 2500 nM
- IC50 (KDM5B): 250 to 2500 nM

Structure (SMILES): c1ccc(CN2CCC[C@H]2CNCc2cc(CNCC3CC3)ccn2)cc1 [Compound 16, {[(2S)-1-benzylpyrrolidin-2-yl]methyl}[(4-{[(cyclopropylmethyl)-amino]methyl}pyridin-2-yl)methyl]amine]
- IC50 (KDM4A (JMJD2A)): > 2500 nM
- IC50 (KDM5C (JARID1C)): 250 to 2500 nM
- IC50 (KDM6B (JMJD3)): > 2500 nM
- IC50 (KDM5B): > 2500 nM

Structure (SMILES): CNCc1ccnc(CNCCCN(C)Cc2ccccc2)c1 [Compound 17, benzyl(methyl){3-[({4-[(methylamino)methyl]-pyridin-2-yl)methyl)-amino]propyl}-amine]
- IC50 (KDM4A (JMJD2A)): > 2500 nM
- IC50 (KDM5C (JARID1C)): < 250 nM
- IC50 (KDM6B (JMJD3)): > 2500 nM
- IC50 (KDM5B): > 2500 nM

Structure (SMILES): CN(C)CCNCc1cc(CNC(C#N)C2CC2)ccn1 (stereo not drawn) [Compound 21, 2-cyclopropyl-2-({[2-({[2-(dimethylamino)ethyl]-amino}methyl)pyridin-4-yl]methyl}amino)-acetonitrile]
- IC50 (KDM4A (JMJD2A)): > 2500 nM
- IC50 (KDM5C (JARID1C)): > 2500 nM
- IC50 (KDM6B (JMJD3)): > 2500 nM
- IC50 (KDM5B): 250 to 2500 nM

Structure (SMILES): CC(C#N)NCc1ccnc(CNCCCN(C)C)c1 (stereo not drawn) [Compound 22, 2-({[2-({[3-(dimethylamino)propyl]-amino}methyl)pyridin-4-yl]methyl}amino)-propanenitrile]
- IC50 (KDM4A (JMJD2A)): > 2500 nM
- IC50 (KDM5C (JARID1C)): < 250 nM
- IC50 (KDM6B (JMJD3)): > 2500 nM
- IC50 (KDM5B): < 250 nM

Structure (SMILES): N#CCNCc1ccnc(CNCCCCN(Cc2ccccc2)C2CC2)c1 [Compound 23, 2-[({2-[({4-[benzyl(cyclopropyl)-amino]butyl}amino)-methyl]pyridin-4-yl}methyl)amino]-acetonitrile]
- IC50 (KDM4A (JMJD2A)): > 2500 nM
- IC50 (KDM5C (JARID1C)): < 250 nM
- IC50 (KDM6B (JMJD3)): > 2500 nM
- IC50 (KDM5B): 250 to 2500 nM

Structure (SMILES): CNC(C#N)c1ccnc(CNCCCN(C)C)c1 (stereo not drawn) [Compound 24, 2-[2-({[3-(dimethylamino)propyl]-amino}methyl)pyridin-4-yl]-2-(methylamino)-acetonitrile]
- IC50 (KDM4A (JMJD2A)): 250 to 2500 nM
- IC50 (KDM5C (JARID1C)): < 250 nM
- IC50 (KDM6B (JMJD3)): > 2500 nM
- IC50 (KDM5B): < 250 nM

Structure (SMILES): CCN(CCN(C)C)C(=O)CNCc1cc(CNC(=O)C(F)(F)F)ccn1 [Compound 25, N-[(2-{[({[2-(dimethylamino)ethyl]-(ethyl)carbamoyl}-methyl)amino]methyl}-pyrtdin-4-yl)methyl]-2,2,2-trifluoroacetamide]
- IC50 (KDM4A (JMJD2A)): > 2500 nM
- IC50 (KDM5C (JARID1C)): 250 to 2500 nM
- IC50 (KDM6B (JMJD3)): > 2500 nM
- IC50 (KDM5B): < 250 nM

Structure (SMILES): CN(C)C(=O)CNCc1cc(/C=N\C2CC2)ccn1 [Compound 33]
- IC50 (KDM4A (JMJD2A)): < 250 nM
- IC50 (KDM5C (JARID1C)): < 250 nM
- IC50 (KDM6B (JMJD3)): > 2500 nM
- IC50 (KDM5B): 250 to 2500 nM

Structure (SMILES): CCN(CC)CCCCNCc1cc(/C=N/CCOC)ccn1 [Compound 60, [4-(diethylamino)butyl]-({4-[[(2-methoxyethyl)imino]-methyl]pyridin-2-yl}methyl)amine]
- IC50 (KDM4A (JMJD2A)): < 250 nM
- IC50 (KDM5C (JARID1C)): < 250 nM
- IC50 (KDM6B (JMJD3)): > 2500 nM
